What was measured:
[1] = molecular target: T1, Rat mGlu2 (Rattus norvegicus, UniProt P31421); assay: mGlu receptor in vitro assay, thallium flux through GIRK channels, rat mGlu2; format: cell-based; conditions: PAM potency with EC20 glutamate
T1 construct: expressed in transfected cells; host or cells: HEK-293 co-expressing GIRK channels
Method: (§1) Human Embryonic Kidney (HEK-293) cell lines co-expressing rat mGlu receptors 2, 3, 4, 6, 7 or 8 and G protein-coupled inwardly-rectifying potassium (GIRK) channels were grown in Growth Media containing 45% DMEM, 45% F-12, 10% FBS, 20 mM HEPES, 2 mM L-glutamine, antibiotic/antimycotic, non-essential amino acids, 700 μg/mL G418, and 0.6 μg/ml puromycin at 37° C. in the presence of 5% CO2. […] All cell culture reagents were purchased from Invitrogen Corp. (Carlsbad, CA) unless otherwise noted. Calcium assays were used to assess activity of compounds at mGlu1 and mGlu5, as previously described in Engers et al (J. Med. Chem. 2009, 52, 4115-4118). Calcium assays at mGlu3 were performed as described for mGlu5 with the exception that TREx293 mGlu3 Gα15 cells were treated with tetracycline at 20 ng/mL for 20 h prior to assay.
(§2) Compound activity at the group II (mGlu2 and mGlu3) and group III (mGlu4, mGlu6, mGlu7, and mGlu8) was assessed using thallium flux through GIRK channels, a method that has been described in detail. Briefly, cells were plated into 384-well, black-walled, clear-bottomed poly-D-lysine-coated plates at a density of 15,000 cells/20 μL/well in DMEM containing 10% dialyzed FBS, 20 mM HEPES, and 100 units/mL penicillin/streptomycin (assay media). Plated cells were incubated overnight at 37° C. in the presence of 5% CO2. The following day, the medium was exchanged from the cells to assay buffer [Hanks' balanced salt solution (Invitrogen) containing 20 mM HEPES, pH 7.3] using an ELX405 microplate washer (BioTek), leaving 20 μL/well, followed by the addition of 20 μL/well FluoZin2-AM (330 nM final concentration) indicator dye (Invitrogen; prepared as a stock in DMSO and mixed in a 1:1 ratio with Pluronic acid F-127) in assay buffer. Cells were incubated for 1 h at room temperature, and the dye exchanged to assay buffer using an ELX405, leaving 20 μL/well. Test compounds were diluted to 2 times their final desired concentration in assay buffer (0.3% DMSO final concentration). Agonists were diluted in thallium buffer [125 mM sodium bicarbonate (added fresh the morning of the experiment), 1 mM magnesium sulfate, 1.8 mM calcium sulfate, 5 mM glucose, 12 mM thallium sulfate, and 10 mM HEPES, pH 7.3] at 5 times the final concentration to be assayed. Cell plates and compound plates were loaded onto a kinetic imaging plate reader (FDSS 6000 or 7000; Hamamatsu Corporation, Bridgewater, NJ). Appropriate baseline readings were taken (10 images at 1 Hz; excitation, 470±20 nm; emission, 540±30 nm) and test compounds were added in a 20 μL volume and incubated for approximately 2.5 min before the addition of 10 μL of thallium buffer with or without agonist. After the addition of agonist, data were collected for approximately an additional 2.5 min. Data were analyzed using Excel (Microsoft Corp, Redmond, WA). The slope of the fluorescence increase beginning 5 s after thallium/agonist addition and ending 15 s after thallium/agonist addition was calculated, corrected to vehicle and maximal agonist control slope values, and plotted in using either XLfit (ID Business Solutions Ltd) or Prism software (GraphPad Software, San Diego, CA) to generate concentration-response curves. Potencies were calculated from fits using a four-point parameter logistic equation. For concentration-response curve experiments, compounds were serially diluted 1:3 into 10-point concentration response curves and were transferred to daughter plates using an Echo acoustic plate reformatter (Labcyte, Sunnyvale, CA). Test compounds were applied and followed by EC20 concentrations of glutamate.

[2] = molecular target: T2, Rat mGlu3 (Rattus norvegicus, UniProt P31422); assay: mGlu receptor in vitro assay (thallium flux through GIRK channels / calcium assay), rat mGlu3; format: cell-based; conditions: PAM potency with EC20 glutamate
T2 construct: expressed in transfected cells; host or cells: HEK-293 co-expressing GIRK channels
Method: as §1, §2

T2 sequence (P31422 23-879): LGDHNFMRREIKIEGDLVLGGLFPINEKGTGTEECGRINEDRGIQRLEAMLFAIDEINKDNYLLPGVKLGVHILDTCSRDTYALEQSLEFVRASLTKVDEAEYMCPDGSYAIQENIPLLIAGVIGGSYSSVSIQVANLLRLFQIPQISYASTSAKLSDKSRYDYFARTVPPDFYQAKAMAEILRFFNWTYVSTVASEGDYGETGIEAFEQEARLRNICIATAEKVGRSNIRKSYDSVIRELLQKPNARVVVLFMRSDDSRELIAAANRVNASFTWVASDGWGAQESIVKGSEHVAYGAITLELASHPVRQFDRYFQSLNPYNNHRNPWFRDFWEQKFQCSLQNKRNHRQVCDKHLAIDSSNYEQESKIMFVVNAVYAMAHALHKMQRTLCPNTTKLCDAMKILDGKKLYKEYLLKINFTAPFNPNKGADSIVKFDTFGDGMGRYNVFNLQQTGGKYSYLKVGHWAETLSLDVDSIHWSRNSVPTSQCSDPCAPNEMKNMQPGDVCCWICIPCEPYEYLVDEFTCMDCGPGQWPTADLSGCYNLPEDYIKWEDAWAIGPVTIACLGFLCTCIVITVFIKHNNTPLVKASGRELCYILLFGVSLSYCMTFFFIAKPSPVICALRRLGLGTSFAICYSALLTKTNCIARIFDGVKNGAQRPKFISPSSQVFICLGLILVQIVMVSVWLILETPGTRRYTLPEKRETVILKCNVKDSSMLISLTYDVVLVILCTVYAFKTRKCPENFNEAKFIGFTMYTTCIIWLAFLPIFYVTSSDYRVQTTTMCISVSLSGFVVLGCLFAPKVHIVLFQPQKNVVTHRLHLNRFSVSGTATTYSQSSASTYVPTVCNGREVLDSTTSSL
T1 sequence (P31421 19-872): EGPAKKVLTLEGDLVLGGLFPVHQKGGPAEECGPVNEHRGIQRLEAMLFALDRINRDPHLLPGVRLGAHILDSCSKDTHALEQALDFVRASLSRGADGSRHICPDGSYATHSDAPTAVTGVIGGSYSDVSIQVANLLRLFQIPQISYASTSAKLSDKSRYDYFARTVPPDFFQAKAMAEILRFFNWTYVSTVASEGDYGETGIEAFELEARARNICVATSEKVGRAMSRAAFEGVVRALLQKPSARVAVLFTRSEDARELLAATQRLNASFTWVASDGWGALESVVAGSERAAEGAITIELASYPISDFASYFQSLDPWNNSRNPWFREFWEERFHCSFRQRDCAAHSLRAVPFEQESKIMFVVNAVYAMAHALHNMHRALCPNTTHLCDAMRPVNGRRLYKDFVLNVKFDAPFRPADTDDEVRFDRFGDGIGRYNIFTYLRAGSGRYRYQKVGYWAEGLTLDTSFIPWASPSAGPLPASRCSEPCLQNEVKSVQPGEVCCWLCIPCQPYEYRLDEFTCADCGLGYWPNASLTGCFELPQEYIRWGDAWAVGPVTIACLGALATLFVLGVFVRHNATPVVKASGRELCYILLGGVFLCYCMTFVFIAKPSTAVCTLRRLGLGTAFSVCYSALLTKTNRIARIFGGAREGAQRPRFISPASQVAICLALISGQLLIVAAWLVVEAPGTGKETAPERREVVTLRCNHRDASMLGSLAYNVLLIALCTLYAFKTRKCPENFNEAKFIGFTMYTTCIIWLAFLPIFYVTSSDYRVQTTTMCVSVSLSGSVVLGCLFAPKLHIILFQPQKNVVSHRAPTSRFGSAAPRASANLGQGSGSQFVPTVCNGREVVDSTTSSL

Row | SMILES | EC50 [1] | EC50 [2]
1 | COc1ccc(C(=O)O)cc1OCCOCCOc1ccc(C(=O)CC(C)(C)C)c(O)c1C [Example 1, 3-(2-(2-(4-(3,3-Dimethylbutanoyl)-3-hydroxy-2-methylphenoxy)ethoxy)ethoxy)-4-methoxybenzoic acid] | 0.018 µM | 0.052 µM
2 | Cc1c(OC/C=C/COc2ccc(C(=O)CC(C)(C)C)c(O)c2C)cccc1C(=O)O [Example 21, 3-{(2E)-4-[4-(3,3-Dimethylbutanoyl)-3-hydroxy-2-methylphenoxy]but-2-enyloxy}-2-methylbenzoic acid] | 0.038 µM | 0.073 µM
3 | COc1ccc(C(=O)O)cc1OCC(C)CCOc1ccc(C(=O)CC(C)(C)C)c(O)c1C (stereo not shown) [Example 32, 3-{4-[4-(3,3-Dimethylbutanoyl)-3-hydroxy-2-methylphenoxy]-2-methylbutoxy}-4-methoxybenzoic acid] | 0.127 µM | 0.2 µM
4 | CCCC(=O)c1ccc(OCCS(=O)(=O)CCOc2ccc(C(=O)O)c(Cl)c2)c(C)c1O [Example 37, 4-(2-{[2-(4-Butanoyl-3-hydroxy-2-methylphenoxy)ethyl]sulfonyl}ethoxy)-2-chlorobenzoic acid] | > 10 µM | > 30 µM
5 | CCCC(=O)c1ccc(OCC[S+]([O-])CCOc2cccc(C(=O)O)c2C)c(C)c1O (stereo not shown) [Example 39, 3-(2-{[2-(4-Butanoyl-3-hydroxy-2-methylphenoxy)ethyl]sulfinyl}ethoxy)-2-methylbenzoic acid] | > 10 µM | > 30 µM
6 | CCCC(=O)c1ccc(OCC[S+]([O-])CCOc2ccc(C(=O)O)c(Cl)c2)c(C)c1O (stereo not shown) [Example 40, 4-(2-{[2-(4-Butanoyl-3-hydroxy-2-methylphenoxy)ethyl]sulfinyl}ethoxy)-2-chlorobenzoic acid] | 0.591 µM | > 30 µM
7 | CCCC(=O)c1ccc(OCC#CCOc2ccc(C(=O)O)c(Cl)c2)c(C)c1O [Example 43, 4-[4-(4-Butanoyl-3-hydroxy-2-methylphenoxy)but-2-ynyloxy]-2-chlorobenzoic acid] | 0.033 µM | > 10 µM
8 | Cc1c(OCCCCCOc2ccc(F)c(C(=O)O)c2)ccc(C(=O)CC(C)C)c1O [Example 47, 2-Fluoro-5-{5-[3-hydroxy-2-methyl-4-(3-methylbutanoyl)phenoxy]pentyloxy}benzoic acid] | 0.113 µM | 2.04 µM
9 | CCCC(=O)c1ccc(OCCCCCOc2ccc(F)c(C(=O)O)c2)c(C)c1O [Example 48, 5-[5-(4-Butanoyl-3-hydroxy-2-methylphenoxy)pentyloxy]-2-fluorobenzoic acid] | 0.039 µM | > 10 µM
10 | CCCCC(=O)c1ccc(OCCCCCOc2cccc(C(=O)O)c2C)c(C)c1O [Example 49, 3-[5-(3Hydroxy-2-methyl-4-pentanoylphenoxy)pentyloxy]-2-methylbenzoic acid] | 0.426 µM | > 10 µM
11 | Cc1c(OCc2cccc(-c3cccc(S(N)(=O)=O)c3)c2)ccc(C(=O)CC(C)(C)C)c1O [Example 163, 3′-((4-(3,3-Dimethylbutanoyl)-3-hydroxy-2-methylphenoxy)methyl)-[1,1′-biphenyl]-3-sulfonamide] | 1.36 µM | > 30 µM
12 | Cc1c(OCc2cccc(-c3cccc(C(=O)O)c3)c2)ccc(C(=O)c2ccccc2)c1O [compound 66, 3′-((4-Benzoyl-3-hydroxy-2-methylphenoxy)methyl)-[1,1′-biphenyl]-3-carboxylic acid] | 0.769 µM | 2.28 µM
13 | Cc1c(OCc2cccc(-c3cccc(C(=O)O)c3)c2)ccc(C(=O)C2CC2)c1O [compound 68, 3′-((4-(Cyclopropanecarbonyl)-3-hydroxy-2-methylphenoxy)methyl)-[1,1′-biphenyl]-3-carboxylic acid] | 0.186 µM | 3.73 µM
14 | Cc1c(OCc2cnc(-c3cccc(C(=O)O)c3)cn2)ccc(C(=O)C2CC2)c1O [compound 70, 3-(5-((4-(Cyclopropanecarbonyl)-3-hydroxy-2-methylphenoxy)methyl)pyrazin-2-yl)benzoic acid] | 0.824 µM | 2.55 µM
15 | Cc1c(SCCCCOc2cccc(C(=O)O)c2)ccc(C(=O)CC(C)(C)C)c1O [compound 83] | 0.549 µM | 3.29 µM
16 | Cc1nc(-c2cccc(-c3cnc(COc4ccc(C(=O)CC(C)(C)C)c(O)c4C)cn3)c2)no1 [compound 86, 1-(2-Hydroxy-3-methyl-4-((5-(3-(5-methyl-1,2,4-oxadiazol-3-yl)phenyl)pyrazin-2-yl)methoxy)phenyl)-3,3-dimethylbutan-1-one] | > 30 µM | > 10 µM
17 | COc1ccc(NC(=O)NS(C)(=O)=O)cc1OCCCCOc1ccc(C(=O)CC(C)(C)C)c(O)c1C [compound 87, N-((3-(4-(4-(3,3-dimethylbutanoyl)-3-hydroxy-2-methylphenoxy)butoxy)-4-methoxyphenyl)carbamoyl)methanesulfonamide] | 1.32 µM | 2.39 µM

The next lines start with the values.

Row | EC50 [1] | EC50 [2] | SMILES
18 | 0.004 µM | 2.59 µM | CCCC(=O)c1ccc(OC/C=C/COc2ccc(C(=O)O)cc2OC)c(C)c1O [Example 6, (E)-4-((4-(4-Butyryl-3-hydroxy-2-methylphenoxy)but-2-en-1-yl)oxy)-3-methoxybenzoic acid]
19 | 0.018 µM | > 30 µM | CCCC(=O)c1ccc(OCCSCCOc2ccc(C(=O)O)cc2OC)c(C)c1O [Example 15, 4-{2-[2-(4-Butanoyl-3-hydroxy-2-methylphenoxy)ethylthio]ethoxy}-3-methoxybenzoic acid]
20 | 0.031 µM | 1.9 µM | CCCC(=O)c1ccc(OCC#CCOc2ccc(C(=O)O)cc2OC)c(C)c1O [Example 34, 4-[4-(4-Butanoyl-3-hydroxy-2-methylphenoxy)but-2-ynyloxy]-3-methoxybenzoic acid]
21 | > 10 µM | > 30 µM | CCCC(=O)c1ccc(OCCS(=O)(=O)CCOc2cccc(C(=O)O)c2C)c(C)c1O [Example 38, 3-(2-{[2-(4-Butanoyl-3-hydroxy-2-methylphenoxy)ethyl]sulfonyl}ethoxy)-2-methylbenzoic acid]
22 | 0.182 µM | 1.17 µM | CCCC(=O)c1ccc(OCCCCCCOc2cccc(C(=O)O)c2C)c(C)c1O [Example 55, 3-[6-(4-Butanoyl-3-hydroxy-2-methylphenoxy)hexyloxy]-2-methylbenzoic acid]
23 | 0.337 µM | 2.53 µM | Cc1c(SCc2cccc(-c3cccc(C(=O)O)c3)c2)ccc(C(=O)CC(C)(C)C)c1O [Example 165, 3′-(((4-(3,3-Dimethylbutanoyl)-3-hydroxy-2-methylphenyl)thio)methyl)-[1,1′-biphenyl]-3-carboxylic acid]
24 | 1.8 µM | 0.625 µM | Cc1c(OCc2cnc(-c3cccc(C(=O)O)c3)cn2)ccc(C(=O)c2ccccc2)c1O [compound 67, 3-(5-((4-Benzoyl-3-hydroxy-2-methylphenoxy)methyl)pyrazin-2-yl)benzoic acid]
25 | 0.128 µM | 0.81 µM | Cc1c(OCCCCNc2cccc(C(=O)O)c2)ccc(C(=O)CC(C)(C)C)c1O [compound 85, 3-((4-(4-(3,3-Dimethylbutanoyl)-3-hydroxy-2-methylphenoxy)butyl)amino)benzoic acid]
26 | 1.53 µM | > 10 µM | Cc1c(OCc2cccc(-c3cccc(NC(=O)NS(C)(=O)=O)c3)c2)ccc(C(=O)CC(C)(C)C)c1O [compound 88, N-((3′-((4-(3,3-Dimethylbutanoyl)-3-hydroxy-2-methylphenoxy)methyl)-[1,1′-biphenyl]-3-yl)carbamoyl)methanesulfonamide]

Source: patent publication US20250179000A1 (Sanford Burnham Prebys Medical Discovery Institute, priority 2021, published 2025)
